Values quoted from earlier work, collected in US6087087A, “Treatment of hemoglobin with nitric oxide” (Yonetani; Takashi, priority 1998, dated 2000).
Like-named read-outs stand apart in the source and are kept apart here.

Key:
blood of the rat = details: rat treated with nitroglycerin
Hb in rats = details: nitroglycerin-induced

Row | Compound | right shift of the O2 binding curve of blood (blood of the rat) | α-nitrosylHb formed, of the total heme of Hb (Hb in rats) | affinity of NO for Hb relative to CO (Hb (hemoglobin)) | affinity of NO for Hb relative to CO (Hb (hemoglobin); listed as nitric oxide)
1 | O=[N+]([O-])OCC(CO[N+](=O)[O-])O[N+](=O)[O-] [nitroglycerin] | approximately 10 torr | less than 2% |  | 
2 | nitric oxide [NO] |  |  | > 10^3 fold | more than a thousand-fold higher affinity
